Numbered stars: 1 amine (or outer) side, 2 acyl side, 3 side chain; on linkers, the order of the positions; unused ones are H or OH. Bridge positions count the residues as written; N and C are the ends. Square brackets hold non-standard residues; d marks the D form. Peptide text beside a SMILES is read from it. Arg(Me2a) = CN(C)C(=N)NCCC[C@H](N)C(=O)O; Arg(Me2s) = CN=C(NC)NCCC[C@H](N)C(=O)O; TBMB = c1c(C[*:1])cc(C[*:3])cc1C[*:2]
T1: Human factor XIIa (hfXIIa) (Homo sapiens, UniProt P00748)
T1 sequence (P00748 373-615 limits assumed): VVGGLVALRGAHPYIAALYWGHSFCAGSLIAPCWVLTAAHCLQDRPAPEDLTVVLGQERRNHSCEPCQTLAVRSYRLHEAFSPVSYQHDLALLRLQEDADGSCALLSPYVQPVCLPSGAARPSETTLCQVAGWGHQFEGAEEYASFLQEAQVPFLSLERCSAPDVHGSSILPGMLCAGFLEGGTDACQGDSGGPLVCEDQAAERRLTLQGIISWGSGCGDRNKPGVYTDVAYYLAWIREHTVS

B1: Ac-(06-34-18) NDMA5 (peptide)
peptide: Ac-CSWPA[Arg(Me2a)]CLHQDLC-NH2
modifications: linker 1-7-13 via TBMB
SMILES: CC(=O)N[C@H]1CSCc2cc3cc(c2)CSC[C@H](NC(=O)[C@H](CCCNC(=N)N(C)C)NC(=O)[C@H](C)NC(=O)[C@@H]2CCCN2C(=O)[C@H](Cc2c[nH]c4ccccc24)NC(=O)[C@H](CO)NC1=O)C(=O)N[C@@H](CC(C)C)C(=O)N[C@@H](Cc1c[nH]cn1)C(=O)N[C@@H](CCC(N)=O)C(=O)N[C@@H](CC(=O)O)C(=O)N[C@@H](CC(C)C)C(=O)N[C@H](C(N)=O)CSC3
B2: Ac-(06-34-18) SDMA5 (peptide)
peptide: Ac-CSWPA[Arg(Me2s)]CLHQDLC-NH2
modifications: linker 1-7-13 via TBMB
SMILES: CN=C(NC)NCCC[C@@H]1NC(=O)[C@H](C)NC(=O)[C@@H]2CCCN2C(=O)[C@H](Cc2c[nH]c3ccccc23)NC(=O)[C@H](CO)NC(=O)[C@@H](NC(C)=O)CSCc2cc3cc(c2)CSC[C@H](NC1=O)C(=O)N[C@@H](CC(C)C)C(=O)N[C@@H](Cc1c[nH]cn1)C(=O)N[C@@H](CCC(N)=O)C(=O)N[C@@H](CC(=O)O)C(=O)N[C@@H](CC(C)C)C(=O)N[C@H](C(N)=O)CSC3
B3: Ac-(06-34-18) D-Trp2 (peptide)
peptide: Ac-CS[dW]PARCLHQDLC-NH2
modifications: linker 1-7-13 via TBMB
SMILES: CC(=O)N[C@H]1CSCc2cc3cc(c2)CSC[C@H](NC(=O)[C@H](CCCNC(=N)N)NC(=O)[C@H](C)NC(=O)[C@@H]2CCCN2C(=O)[C@@H](Cc2c[nH]c4ccccc24)NC(=O)[C@H](CO)NC1=O)C(=O)N[C@@H](CC(C)C)C(=O)N[C@@H](Cc1c[nH]cn1)C(=O)N[C@@H](CCC(N)=O)C(=O)N[C@@H](CC(=O)O)C(=O)N[C@@H](CC(C)C)C(=O)N[C@H](C(N)=O)CSC3
B4: Ac-(06-34-18) D-Ala4 (peptide)
peptide: Ac-CSWP[dA]RCLHQDLC-NH2
modifications: linker 1-7-13 via TBMB
SMILES: CC(=O)N[C@H]1CSCc2cc3cc(c2)CSC[C@H](NC(=O)[C@H](CCCNC(=N)N)NC(=O)[C@@H](C)NC(=O)[C@@H]2CCCN2C(=O)[C@H](Cc2c[nH]c4ccccc24)NC(=O)[C@H](CO)NC1=O)C(=O)N[C@@H](CC(C)C)C(=O)N[C@@H](Cc1c[nH]cn1)C(=O)N[C@@H](CCC(N)=O)C(=O)N[C@@H](CC(=O)O)C(=O)N[C@@H](CC(C)C)C(=O)N[C@H](C(N)=O)CSC3

What was measured:
Human thrombin = Human thrombin (Homo sapiens, UniProt P00734); assay: Inhibition of paralogous protease thrombin; format: biochemical
Description: (§1) The target specificity of the isolated bicyclic peptide inhibitors was assessed by determining the inhibition of trypsin-like human serine proteases of the class S1A which comprises 79 members (Yousef, et al, Biochem Biophys Res Commun 2003, 305 (1), 28-36). The panel of proteases included hfXIa which shares the highest sequence identity with hPK (69%) as well as the structurally less related but vital human serine proteases thrombin (36%), plasmin (34% sequence identity with hPK) and factor XIIa (35%).

[1] = target: human plasma kallikrein (hPK) (Homo sapiens, UniProt P03952); assay: Enzyme inhibition assay, human plasma kallikrein
human plasma kallikrein (hPK), sequence (P03952 20-638): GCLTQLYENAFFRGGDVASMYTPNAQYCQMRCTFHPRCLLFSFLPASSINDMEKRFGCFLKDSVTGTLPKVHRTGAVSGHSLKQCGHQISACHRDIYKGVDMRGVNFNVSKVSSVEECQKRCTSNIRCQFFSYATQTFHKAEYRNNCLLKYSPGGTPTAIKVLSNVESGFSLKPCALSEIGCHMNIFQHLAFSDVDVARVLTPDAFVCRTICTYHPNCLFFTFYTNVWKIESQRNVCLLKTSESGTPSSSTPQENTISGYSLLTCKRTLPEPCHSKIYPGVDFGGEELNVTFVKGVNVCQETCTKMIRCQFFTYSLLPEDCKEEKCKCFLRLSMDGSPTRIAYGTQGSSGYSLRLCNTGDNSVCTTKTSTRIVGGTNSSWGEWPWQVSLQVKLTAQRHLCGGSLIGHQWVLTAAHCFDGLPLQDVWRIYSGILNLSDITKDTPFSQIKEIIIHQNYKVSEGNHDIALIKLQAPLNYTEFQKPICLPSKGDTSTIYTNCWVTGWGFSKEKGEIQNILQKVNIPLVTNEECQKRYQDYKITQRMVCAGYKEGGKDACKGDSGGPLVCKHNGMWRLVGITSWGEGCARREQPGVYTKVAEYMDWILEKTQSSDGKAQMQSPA

[2] = target: T1, Human factor XIIa (hfXIIa); assay: Inhibition of paralogous protease factor XIIa; format: biochemical
Description: as §1

[3] = target: T2, Human plasma kallikrein (hPK) (human, UniProt P03952 20-638, limits assumed); assay: enzyme inhibition assay (fluorogenic substrate)
T2 construct: also called human PK; human kallikrein
T2 sequence (P03952 20-638 limits assumed): as the sequence (P03952 20-638) above

[4] = target: T2, Human plasma kallikrein (hPK); assay: enzyme inhibition assay (fluorogenic substrate); remark: listed apart in the source

Molecule | IC50 (Human thrombin) | Ki [1] | IC50 [2] | Ki [3] | fold loss in potency against Ac-06-34-18 wildtype [4] | fold reduction of affinity against Ac-06-34-18 wildtype [4]
CC(C)C[C@@H]1NC(=O)[C@@H]2CSCc3cc(cc(c3)CSC[C@@H](C(=O)N[C@@H](C)C(N)=O)NC(=O)[C@@H]3CCCN3C(=O)[C@H](CCCNC(=N)N)NC(=O)[C@H](CCCNC(=N)N)NC(=O)[C@H](Cc3ccccc3)NC1=O)CSC[C@H](NC(=O)[C@H](C)N)C(=O)N[C@@H](C)C(=O)N[C@@H](CC(=O)O)C(=O)N1CCC[C@H]1C(=O)N[C@@H](Cc1c[nH]c3ccccc13)C(=O)N[C@@H](C)C(=O)N2 [06-63 T] (H-ACADPWACLFRRPCA-NH2; linker 2-8-14 via TBMB) | > 10000 nM | 1280 nM | > 10000 nM | – | – | –
CSCC[C@@H]1NC(=O)[C@H](CCC(=O)O)NC(=O)[C@H](CCC(N)=O)NC(=O)[C@H](Cc2c[nH]cn2)NC(=O)[C@H]([C@@H](C)O)NC(=O)[C@@H]2CSCc3cc(cc(c3)CSC[C@@H](C(=O)N[C@@H](C)C(N)=O)NC1=O)CSC[C@H](NC(=O)[C@H](C)N)C(=O)NCC(=O)N[C@@H](C(C)C)C(=O)N1CCC[C@H]1C(=O)N[C@@H](Cc1ccc(O)cc1)C(=O)N[C@@H](CCCNC(=N)N)C(=O)N2 [06-64 T] (H-ACGVPYRCTHQEMCA-NH2; linker 2-8-14 via TBMB) | > 10000 nM | 6.9 nM | > 10000 nM | – | – | –
CSCC[C@@H]1NC(=O)[C@H]([C@@H](C)O)NC(=O)[C@@H]2CSCc3cc(cc(c3)CSC[C@@H](C(=O)N[C@@H](C)C(N)=O)NC(=O)[C@H](Cc3c[nH]c4ccccc34)NC(=O)[C@H](CC(N)=O)NC(=O)[C@H](CCC(N)=O)NC1=O)CSC[C@H](NC(=O)[C@H](C)N)C(=O)N[C@@H]([C@@H](C)O)C(=O)N[C@@H](Cc1c[nH]c3ccccc13)C(=O)N1CCC[C@H]1C(=O)N[C@@H](C)C(=O)N[C@@H](CCCNC(=N)N)C(=O)N2 [06-A2*] (H-ACTWPARCTMQNWCA-NH2; linker 2-8-14 via TBMB) | – | 181 nM | > 10000 nM | – | – | –
CC(C)[C@@H]1NC(=O)[C@H](CCCNC(=N)N)NC(=O)[C@@H]2CSCc3cc(cc(c3)CSC[C@@H](C(=O)N[C@@H](C)C(N)=O)NC(=O)[C@H](C)NC1=O)CSC[C@H](NC(=O)[C@H](C)N)C(=O)N[C@@H](Cc1ccccc1)C(=O)N[C@@H](CCCCN)C(=O)N[C@@H](Cc1c[nH]cn1)C(=O)N2 [Peptide 3B8] (H-ACFKHCRVACA-NH2; linker 2-6-10 via TBMB) | > 10000 nM | 0.95 nM | – | – | – | –
C[C@H](N)C(=O)N[C@H]1CSCc2cc3cc(c2)CSC[C@H](NC(=O)[C@H](CCCNC(=N)N)NC(=O)[C@H](C)NC(=O)[C@@H]2CCCN2C(=O)[C@H](Cc2c[nH]c4ccccc24)NC(=O)[C@H]([C@@H](C)O)NC1=O)C(=O)N[C@@H]([C@@H](C)O)C(=O)N[C@@H](Cc1c[nH]cn1)C(=O)N[C@@H](CCC(N)=O)C(=O)N[C@@H](CC(N)=O)C(=O)N[C@@H](Cc1c[nH]c2ccccc12)C(=O)N[C@H](C(=O)N[C@@H](C)C(N)=O)CSC3 [Peptide 06-09] (H-ACTWPARCTHQNWCA-NH2; linker 2-8-14 via TBMB) | > 10000 nM | 1.2 nM | > 10000 nM | – | – | –
CC(C)C[C@@H]1NC(=O)[C@H](CC(=O)O)NC(=O)[C@H](CCC(N)=O)NC(=O)[C@H](Cc2c[nH]cn2)NC(=O)[C@H](CC(N)=O)NC(=O)[C@@H]2CSCc3cc(cc(c3)CSC[C@@H](C(=O)N[C@@H](C)C(N)=O)NC1=O)CSC[C@H](NC(=O)[C@H](C)N)C(=O)N[C@@H](CO)C(=O)N[C@@H](Cc1c[nH]c3ccccc13)C(=O)N1CCC[C@H]1C(=O)N[C@@H](C)C(=O)N[C@@H](CCCNC(=N)N)C(=O)N2 [Peptide 06-57] (H-ACSWPARCNHQDLCA-NH2; linker 2-8-14 via TBMB) | > 10000 nM | 0.4 nM | > 10000 nM | – | – | –
CC(C)C[C@@H]1NC(=O)[C@H](CO)NC(=O)[C@H]([C@@H](C)O)NC(=O)[C@H]([C@@H](C)O)NC(=O)[C@H](CC(C)C)NC(=O)[C@@H]2CSCc3cc(cc(c3)CSC[C@@H](C(=O)N[C@@H](C)C(N)=O)NC1=O)CSC[C@H](NC(=O)[C@H](C)N)C(=O)N[C@@H](CCCNC(=N)N)C(=O)N[C@@H](Cc1c[nH]c3ccccc13)C(=O)N1CCC[C@H]1C(=O)N[C@@H](C)C(=O)N[C@@H](CCCNC(=N)N)C(=O)N2 [Peptide 06-59] (H-ACRWPARCLTTSLCA-NH2; linker 2-8-14 via TBMB) | > 10000 nM | 0.5 nM | > 10000 nM | – | – | –
CC(C)C[C@@H]1NC(=O)[C@@H]2CSCc3cc(cc(c3)CSC[C@@H](C(=O)N[C@@H](C)C(N)=O)NC(=O)[C@H](Cc3ccc(O)cc3)NC(=O)[C@H](CC(=O)O)NC(=O)[C@H](CCC(N)=O)NC(=O)[C@H](Cc3c[nH]cn3)NC1=O)CSC[C@H](NC(=O)[C@H](C)N)C(=O)N[C@@H](CO)C(=O)N[C@@H](Cc1c[nH]c3ccccc13)C(=O)N1CCC[C@H]1C(=O)N[C@@H](Cc1ccc(O)cc1)C(=O)N[C@@H](CCCNC(=N)N)C(=O)N2 [Peptide 06-61] (H-ACSWPYRCLHQDYCA-NH2; linker 2-8-14 via TBMB) | > 10000 nM | 5.8 nM | > 10000 nM | – | – | –
CC(C)[C@@H]1NC(=O)[C@H](CCCNC(=N)N)NC(=O)[C@@H]2CSCc3cc(cc(c3)CSC[C@@H](C(=O)N[C@@H](C)C(N)=O)NC(=O)[C@H](CC(N)=O)NC1=O)CSC[C@H](NC(=O)[C@H](C)N)C(=O)N[C@@H](Cc1ccccc1)C(=O)N[C@@H](Cc1ccc(O)cc1)C(=O)N[C@@H](CCCCN)C(=O)N2 [Peptide 06-71] (H-ACFYKCRVNCA-NH2; linker 2-6-10 via TBMB) | – | 15.2 nM | – | – | – | –
CC(C)[C@@H]1NC(=O)[C@H](CCCNC(=N)N)NC(=O)[C@@H]2CSCc3cc(cc(c3)CSC[C@@H](C(=O)N[C@@H](C)C(N)=O)NC(=O)[C@H](CC(N)=O)NC1=O)CSC[C@H](NC(=O)[C@H](C)N)C(=O)N[C@@H](Cc1ccccc1)C(=O)N[C@@H](CCCCN)C(=O)N[C@@H](CCC(N)=O)C(=O)N2 [Peptide 06-94] (H-ACFKQCRVNCA-NH2; linker 2-6-10 via TBMB) | > 10000 nM | 0.7 nM | – | – | – | –
CC(C)C[C@@H]1NC(=O)[C@@H]2CSCc3cc(cc(c3)CSC[C@@H](C(=O)N[C@@H](C)C(N)=O)NC(=O)[C@H](CC(C)C)NC(=O)[C@H](CC(=O)O)NC(=O)[C@H]([C@@H](C)O)NC(=O)[C@H](Cc3c[nH]cn3)NC1=O)CSC[C@H](NC(=O)[C@H](C)N)C(=O)N[C@@H](CC(N)=O)C(=O)N[C@@H](Cc1c[nH]c3ccccc13)C(=O)N1CCC[C@H]1C(=O)N[C@@H](Cc1ccc(O)cc1)C(=O)N[C@@H](CCCNC(=N)N)C(=O)N2 [Peptide 06-157] (H-ACNWPYRCLHTDLCA-NH2; linker 2-8-14 via TBMB) | > 10000 nM | 3.3 nM | > 10000 nM | – | – | –
B1 | – | – | – | 510 nM | – | –
B2 | – | – | – | 1420 nM | – | –
B3 | – | – | – | – | 45000 fold | –
B4 | – | – | – | – | – | 7000 fold

Source: patent US9994617B2, “Modulation of structured polypeptide specificity” (BICYCLE THERAPEUTICS LIMITED, priority 2011, dated 2018)
